Results reported in US10138384B2, “Ophthalmic and contact lens solutions using bicine” (priority 2000, dated 2018).
Counter-ions that a name gives are not always drawn. Values belong to the compound of their own block, whether it stands above or below them.

Assays:
[1] = Reduced preservative binding to contact lenses (radio-labeled C14-PHMB, gamma counter); settings: 1 percent w/v in phosphate buffer, 12 hours at 37 degrees C; for Preservative (C14-PHMB) binding, Average: average of lens A and B
Text: Results were reported in ug/lens. […] The control was phosphate buffer and sodium chloride.

[2] = system: lysozyme; test: Protein deposition inhibition on contact lenses (lysozyme, BCA method); settings: lenses soaked overnight in test solution (additives 1 percent w/v in phosphate buffer), then lysozyme 37 degrees C for 12 hours
Method: Contact lenses were soaked test solutions overnight. Afterwards, lysozyme was added to the tubes and warmed to 37 degrees C. for 12 hours. […] The lenses were assayed for protein deposition by the BCA method and detected on an HP PDA Spectrophotometer. Results were reported in ug/lens. […] The control was phosphate buffer and sodium chloride.

[3] = system: radio-labeled lysozyme; settings: 1 percent w/v in phosphate buffer, 12 hours at 37 degrees Celsius
Method: Contact lenses were soaked and heated in test solutions to which a radio-labeled lysozyme was present in a known amount for a period of 12 hours at 37 degrees Celsius. The lenses were rinsed with distilled water in order to remove residual solution. The lenses were then assayed for protein deposition using a Beckman BioGamma I counter. Results were reported in ug/lens.
Choline chloride was a 1 percent w/v solution. The matrix control was phosphate buffer and sodium chloride.

[4] = system: C. albicans; test: In vitro microbicidal activity, 0.2% phosphate buffer with PHMB (Example 4); type: cell-based; settings: pH 7.2
[5] = system: C. albicans; test: In vitro microbicidal activity, 0.1% phosphate buffer with PHMB and hydrogen peroxide (Example 3B); type: cell-based; settings: additive 1%, PHMB 0.0001%, hydrogen peroxide 0.0060%; for C albicans log reduction: pH 7.0, 4 hours at room temperature; for Improvement (log reduction versus buffer control): pH 7.0, 4 hours, buffer control 0.41
Method: The solutions were made isotonic with sodium chloride and preserved with polyhexamethylene biquanide at 0.0001% and hydrogen peroxide at 0.0060%. Dequest […] was added as a stabilizer. The pH was adjusted to 7.0 with either 1 N sodium hydroxide. […] Subsequently, an aliquot of each solution was serial diluted onto agar plates and incubated for 48 hours at elevated temperatures. At the conclusion of the incubation period the plates are examined for the development of colonies. The log reduction was determined based on a comparison to the inoculum control. The following table provides the results of the in vitro studies.

[6] = additive 0.5%, 0.2% phosphate buffer, PHMB 0.0001%, 4 hours at room temperature
[7] = additive 0.5%, 0.2% phosphate buffer, PHMB 0.0001%, 4 hours, buffer control 0.99

Compound: C[N+](C)(C)CCO.[Cl-] [Choline Chloride]
Preservative (C14-PHMB) binding, Average [1]: 14.5 ug/lens
Preservative (C14-PHMB) binding, Lens A [1]: 18 ug/lens
Preservative (C14-PHMB) binding, Lens B [1]: 11 ug/lens
ug lysozyme per lens [2]: 4.1 ug/lens
Protein deposition, Average ([3]; average of lens A and B): 12 ug/lens
Protein deposition, LensA ([3]; lens A): 14 ug/lens
Protein deposition, LensB ([3]; lens B): 9 ug/lens

Preservative (C14-PHMB) binding, Average [1]: 7 ug/lens
Preservative (C14-PHMB) binding, Lens A [1]: 6 ug/lens
Preservative (C14-PHMB) binding, Lens B [1]: 8 ug/lens
Compound: C[N+](C)(C)CC(=O)O [betaine HCI, Betaine HCl]
C albicans log reduction [4, 6]: 1.37 log
Improvement (log reduction versus buffer control) [4, 7]: 0.38
ug lysozyme per lens [2]: 2.44 ug/lens

Compound: CN1CC(=O)NC1=N [creatinine, Creatinine]
C albicans log reduction [5]: 1.42 log
Improvement (log reduction versus buffer control) [5]: 1.01

Preservative (C14-PHMB) binding, Average [1]: 11 ug/lens
Preservative (C14-PHMB) binding, Lens A [1]: 9 ug/lens
Preservative (C14-PHMB) binding, Lens B [1]: 13 ug/lens
Compound: C[N+](C)(C)CC(O)CC(=O)[O-] (centres unmarked) [carnitine, Carnitine]
C albicans log reduction [4, 6]: 1.28 log
Improvement (log reduction versus buffer control) [4, 7]: 0.29

Compound: C[N+](C)(C)CCO [choline, Choline]
C albicans log reduction [4, 6]: 2.24 log
Improvement (log reduction versus buffer control) [4, 7]: 1.25

Compound: OCCN(CCO)C(CO)(CO)CO [bis-tris, Bis-(2-hydroxyethyl)imino-tns (hydroxymethyl) methane]
C albicans log reduction [4]: 1.21 log
Improvement (log reduction versus buffer control) [4]: 0.22

Compound: O=C(O)CN(CCO)CCO [bicine, N,N-Bis(2-hydroxyethyl)-glycline]
C albicans log reduction [5]: 0.75 log
Improvement (log reduction versus buffer control) [5]: 0.34

Compound: CCN(CC)CC [triethylamine, Triethylamine]
C albicans log reduction [4, 6]: 1.64 log
Improvement (log reduction versus buffer control) [4, 7]: 0.65

Compound: CN(CC(=O)O)C(=N)N [creatine, Creatine]
C albicans log reduction [4, 6]: 1.72 log
Improvement (log reduction versus buffer control) [4, 7]: 0.73

Compound: O=C(O)CNC(CO)(CO)CO [tricine, N-tris(hydroxymethyl)methyl glycine]
C albicans log reduction [4, 6]: 1.33 log
Improvement (log reduction versus buffer control) [4, 7]: 0.34
